From patent US20210379056A1, “SUBSTITUTED PYRAZOLE FUSED RING DERIVATIVE, PREPARATION METHOD THEREFOR, AND APPLICATION THEREOF” (Applied Pharmaceutical Science, Inc., priority 2018, published 2021)
Where two headings read alike, the source gives them in different places.

Columns and labels:
RET (V804L), activated = target: T1, RET (V804L), activated (Homo sapiens, UniProt P07949, V804L); assay: HTRF kinase activity test, RET V804L; format: biochemical; details: Table 2
T1 construct: purchased Signalchem R02-12BG-10
Method: (§1) This test combined peptide substrates and a single proprietary monoclonal antibody with HTRF technology, which was a highly sensitive and stable technology for detecting molecular interactions of proteins. The enzyme phosphorylates the substrate, then the Eu-labeled antibody binds to the phosphorylated substrate, and streptavidin-XL665 binds to all substrates. The TR-FRET signal was generated by the HTRF principle. […] Based on this, the inhibitory effect was evaluated.
(§2) The other compounds were diluted 3-fold gradiently with DMSO from the 10 mM stock solution to a total of 10 concentrations respectively.
(§3) Adding 4 volumes of distilled water to 1 volume of enzyme buffer 5×; 5 mM MgCl2; 1 mM DTT.
(§4) b) centrifuging the compound plate for 1 minute at 1000 g.
(§5) c) sealing the test board.
(§6) f) adding 4 μl of 1× kinase buffer to each well of the test plate, centrifuging the sample plate at 1000 g for 30 seconds, and placing it at room temperature for 10 minutes.
g) preparing a solution of 5× TK-substrate-biotin ([…]) in kinase buffer and 5×ATP (50 μM) in kinase buffer respectively. […]
(§7) The inhibition rate % was calculated as follows:
(§8) Inhibition rate %=[1−(fluorescence signal value of test compound−fluorescence signal value of positive control)/(average ratio of negative control−average ratio of positive control)]*100%
Ratio: generated from the measured fluorescence signal value […]

TT Cell = assay: Cell inhibitory activity test (CCK8); format: cell-based; details: Homo sapiens, TT, Table 3, 72 hours incubation
In short: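 Cells seeded at 4000/well, pre-incubated 24 h (37 °C, 5% CO2), then exposed to graded compound concentrations for 72 h. Viability read by CCK8 at 450 nm after 1-2 h; IC50 fitted from concentration-absorbance data.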

[1] = test system: RET wild-type, mutant and/or fusion-type; assay: Overall statement on RET inhibitory activity (summary of Table 3); details: statement in words summarising Table 3
Description: As shown in the above table, the example compounds of the present disclosure have improved inhibitory activity against RET wild-type, mutant and/or fusion-type.

Ret wt = target: T2, Ret wt (Homo sapiens, UniProt P07949); assay: HTRF kinase activity test, RET wild type; format: biochemical
T2 construct: purchased Invitrogen PV3082
Method: as §1, §2, §3, §4, §5, §6
(§9) g) preparing a solution of 5× TK-substrate-biotin ([…]) in kinase buffer and 5×ATP (50 μM) in kinase buffer respectively.
(§10) h) starting the reaction by adding 2 μl STK-substrate-biotin and 2 μl ATP (prepared in the step g).
(§11) i) centrifuging the sample plate for 30 seconds at 1000 g. Sealing the test board and placing it at room temperature for 30 minutes.
(§12) ) centrifuging at 1000 g for 30 seconds and placing it at room temperature for 1 hour.
as §7, §8
(§13) Ratio: generated from the measured fluorescence signal value
(§14) The average ratio of the positive control is the average ratio of the positive control (200 nM AT13148) in the sample plate;
(§15) The average ratio of negative controls is the average ratio of negative controls (0.1% DMSO) in the sample plate.
(§16) GraphPad 6.0 was used to fit the logarithm of the % inhibition rate and the compound concentration into a nonlinear regression (dose response−variable slope) to calculate the IC50 value.

RET (V804M) = target: T3, RET (V804M) (Homo sapiens, UniProt P07949, V804M); assay: HTRF kinase activity test, RET V804M; format: biochemical; details: Table 3; read-out: RET Enzyme (V804M) IC50
T3 construct: purchased Signalchem R02-12GG
Method: This test combined peptide substrates and a single proprietary monoclonal antibody with HTRF technology, which was a highly sensitive and stable technology for detecting molecular interactions of proteins. The enzyme phosphorylates the substrate, then the Eu-labeled antibody binds to the phosphorylated substrate, and streptavidin-XL665 binds to all substrates. The TR-FRET signal was generated by the HTRF principle. Once the inhibitor (test compound) was added, a weaker TR-FRET signal is obtained. Based on this, the inhibitory effect was evaluated.
as §2, §3
a) Transferring 10 nl of the compound dilution (prepared in 5.2) to each well of the test plate (784075, Greiner);
as §4, §5
d) preparing 5×Ret wt (0.2 ng/μl) and 5×Ret V804L (0.5 ng/μl)/5×Ret V804M (0.5 ng/μl) in 1× kinase buffer respectively.
e) adding 2 μl of 5×Ret wt or 2 μl of Ret V804L/RET V804M to a 384-well test plate (784075, Greiner).
as §6, §9, §10, §11
j) preparing 4×Sa-XL 665 (250 nM) in HTRF detection buffer.
k) adding 5 μl of Sa-XL 665 and 5 μl of TK-antibody-Cryptate (prepared in the step i) to each well of the test plate.
as §12
m) reading the fluorescence signal values at 615 nm (Cryptate) and 665 nm (XL665) on the Envision 2104 plate reader.
Calculating the ratio of each hole (665 nm/615 nm).
as §7, §8, §13, §14, §15, §16

[2] = Table 2, read-out: IC50 (nM) RET wt
[3] = Table 3, read-out: RET Enzyme (wild type) IC50

T3 sequence (P07949 29-1114 V804M): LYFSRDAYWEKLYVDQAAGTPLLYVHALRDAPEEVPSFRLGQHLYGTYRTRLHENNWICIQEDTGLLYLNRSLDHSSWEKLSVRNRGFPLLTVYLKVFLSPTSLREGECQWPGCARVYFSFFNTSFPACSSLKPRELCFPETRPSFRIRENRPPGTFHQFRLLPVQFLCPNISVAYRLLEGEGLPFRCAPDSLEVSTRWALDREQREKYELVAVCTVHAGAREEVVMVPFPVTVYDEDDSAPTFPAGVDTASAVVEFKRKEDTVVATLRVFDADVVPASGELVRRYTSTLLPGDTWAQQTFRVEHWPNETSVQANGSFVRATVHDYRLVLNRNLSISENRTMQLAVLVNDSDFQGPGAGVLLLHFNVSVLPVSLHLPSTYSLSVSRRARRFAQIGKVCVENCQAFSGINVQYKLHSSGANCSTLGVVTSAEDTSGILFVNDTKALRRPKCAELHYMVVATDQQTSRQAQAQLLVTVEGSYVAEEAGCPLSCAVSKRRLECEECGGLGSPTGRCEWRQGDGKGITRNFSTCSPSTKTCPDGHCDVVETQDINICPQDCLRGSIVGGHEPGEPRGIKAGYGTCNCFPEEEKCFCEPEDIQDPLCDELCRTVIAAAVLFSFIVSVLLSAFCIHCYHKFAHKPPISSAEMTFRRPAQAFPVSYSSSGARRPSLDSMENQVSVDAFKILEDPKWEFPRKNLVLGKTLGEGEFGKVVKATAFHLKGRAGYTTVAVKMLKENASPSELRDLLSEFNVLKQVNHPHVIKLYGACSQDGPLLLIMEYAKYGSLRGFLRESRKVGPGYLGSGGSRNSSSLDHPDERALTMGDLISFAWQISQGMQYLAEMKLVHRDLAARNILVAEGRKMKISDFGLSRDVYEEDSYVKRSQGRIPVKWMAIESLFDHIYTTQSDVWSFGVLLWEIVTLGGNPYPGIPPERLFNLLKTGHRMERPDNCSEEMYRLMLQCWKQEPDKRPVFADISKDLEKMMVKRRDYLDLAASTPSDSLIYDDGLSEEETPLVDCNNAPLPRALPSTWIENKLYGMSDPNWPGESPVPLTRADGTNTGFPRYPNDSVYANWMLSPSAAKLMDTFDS
T2 sequence (P07949 29-1114): as the sequence (P07949 29-1114 V804M) above, with M776V counted along it
T1 sequence (P07949 29-1114 V804L): as the sequence (P07949 29-1114 V804M) above, with M776L counted along it

Structure (SMILES)	IC50 (RET (V804L), activated) [nM]	IC50 (TT Cell) [nM]	inhibitory activity against RET wild-type, mutant and/or fusion-type [1]	IC50 (Ret wt; [2]) [nM]	IC50 (Ret wt; [3]) [nM]	IC50 (RET (V804M)) [nM]
Cn1cc(-c2cc(-c3ccc(N4CCN(C(=O)Cc5ccc(F)cn5)CC4)nc3)c3c(C#N)c(N)nn3c2)cn1 [APS069, 2-amino-4-(6-(4-(2-(5-fluoropyridin-2-yl)acetyl)piperazin-1-yl)pyridin-3-yl)-6-(1-methyl-1H-pyrazol-4-yl)pyrazolo[1,5-a]pyridine-3-carbonitrile]	0.124	28.8	excellent activity	0.325	< 1	–
Cn1cc(-c2cc(-c3ccc(N4CCC(Cc5ccccn5)CC4)nc3)c3c(C#N)c(N)nn3c2)cn1 [APS070, 2-amino-6-(1-methyl-1H-pyrazol-4-yl)-4-(6-(4-(pyridin-2-yl-methyl)piperidin-1-yl)pyridin-3-yl)pyrazolo[1,5-a]pyridine-3-carbonitrile]	0.0759	15.6	excellent activity	0.418	< 1	–
CCOCCOc1cc(-c2ccc(N3CC4CC(C3)N4Cc3ccc(OC)nc3)nc2)c2c(C#N)c(N)nn2c1 [APS109, 2-amino-6-(2-ethoxyethoxy)-4-(6-(6-((6-methoxypyridin-3-yl)methyl)-3,6-diazabicyclo [3.1.1]heptan-3-yl)pyridin-3-yl)pyrazolo[1,5-a]pyridine-3-carbonitrile]	–	57.9	excellent activity	–	< 1	< 1
COc1ccc(CN2C3CC2CN(c2ccc(-c4cc(OCCOC5CC5)cn5nc(N)c(C#N)c45)cn2)C3)cn1 [APS113, 2-amino-6-(2-cyclopropoxyethoxy)-4-(6-(6-((6-methoxypyridin-3-yl)methyl)-3,6-diazabicyclo[3.1.1]heptan-3-yl)pyridin-3-yl)pyrazolo[1,5-a]pyridine-3-carbonitrile]	–	83.5	excellent activity	–	< 1	< 1
COc1ccc(CN2C3CC2CN(c2ccc(-c4cc(OCCF)cn5nc(N)c(C#N)c45)cn2)C3)cn1 [APS119, 2-amino-6-(2-fluoroethoxy)-4-(6-(6-((6-methoxypyridin-3-yl)methyl)-3,6-diazabicyclo[3.1.1]heptan-3-yl)pyridin-3-yl)pyrazolo[1,5-a]pyridine-3-carbonitrile]	–	6.6	excellent activity	–	< 1	< 1
